Laboratory results taken from US20240173255A1, “Polymeric Micelle Coated with Chain-Like Poorly Soluble Drug, Preparation Method and Application” (Hangzhou Hanjing Biotechnology Co., Ltd, priority 2021, published 2024).
Converted amounts (≈) assume the structure as drawn. Read-outs that look alike come from different tables or passages of the source.

Columns and labels:
Assay type in all cases: physicochemical
[1] = Solubility of series A to E drugs in water and 10% Soluplus solution; conditions: for Solubility in 10% Soluplus: 10% Soluplus solution
From the text: The solubilities of the poorly soluble chain-like drugs of the series A to E according to the present disclosure in water and a 10% Soluplus solution are shown in Table 2.

Hydrophobic constant = assay: Hydrophobic constant
From the text: (§1) The hydrophobic constants and solubilities of the selenium-containing glutaminase inhibitors from series A to E prepared according to Examples 1 to 5 of the present disclosure as well as the commercially available ethaselen in water, dimethylsulfoxide (DMSO), and Soluplus solutions are shown in Table 4.

[2] = Solubilities of ethaselen and compounds of Examples 1 to 5 in water, DMSO and Soluplus solutions
From the text: as §1

SMILES | Solubility in 10% Soluplus [1] | Solubility in water [1] | Hydrophobic constant (Hydrophobic constant) | Solubility ([2]; DMSO, organic solvent or mixture, read-out: Solubility in DMSO) | Solubility ([2]; water, read-out: Solubility in Water)
COc1ccc2[se]n(CCCn3[se]c4ccc(OCCCN(C)C)cc4c3=O)c(=O)c2c1 [CPD21] | >1000 µg/mL | <10 µg/mL |  |  | 
COc1ccc2[se]n(CCCCn3[se]c4ccc(OCCCN(C)C)cc4c3=O)c(=O)c2c1 [CPD22] | >1000 µg/mL | <10 µg/mL |  |  | 
COc1ccc2[se]n(CCCCCn3[se]c4ccc(OCCCN(C)C)cc4c3=O)c(=O)c2c1 [CPD23] | >1000 µg/mL | <10 µg/mL |  |  | 
COc1ccc2[se]n(CCCCCCn3[se]c4ccc(OCCCN(C)C)cc4c3=O)c(=O)c2c1 [CPD24] | >1000 µg/mL | <10 µg/mL |  |  | 
COc1ccc2[se]n(CCCCCCCn3[se]c4ccc(OCCCN(C)C)cc4c3=O)c(=O)c2c1 [CPD25] | >1000 µg/mL | <10 µg/mL |  |  | 
COc1ccc2[se]n(CCCn3[se]c4ccc(OCCCn5nnnc5C)cc4c3=O)c(=O)c2c1 [CPD26] | >1000 µg/mL | <10 µg/mL |  |  | 
COc1ccc2[se]n(CCCCn3[se]c4ccc(OCCCn5nnnc5C)cc4c3=O)c(=O)c2c1 [CPD27] | >1000 µg/mL | <10 µg/mL |  |  | 
COc1ccc2[se]n(CCCCCn3[se]c4ccc(OCCCn5nnnc5C)cc4c3=O)c(=O)c2c1 [CPD28] | >1000 µg/mL | <10 µg/mL |  |  | 
COc1ccc2[se]n(CCCCCCn3[se]c4ccc(OCCCn5nnnc5C)cc4c3=O)c(=O)c2c1 [CPD29] | >1000 µg/mL | <10 µg/mL |  |  | 
COc1ccc2[se]n(CCCCCCCn3[se]c4ccc(OCCCn5nnnc5C)cc4c3=O)c(=O)c2c1 [CPD30] | >1000 µg/mL | <10 µg/mL |  |  | 
COc1ccc2[se]n(Cc3cccc(Cn4[se]c5ccc(O)cc5c4=O)c3)c(=O)c2c1 [CPD31] | >1000 µg/mL | <10 µg/mL |  |  | 
COc1ccc2[se]n(Cc3cccc(Cn4[se]c5ccc(OCCCN=[N+]=[N-])cc5c4=O)c3)c(=O)c2c1 [CPD32] | >1000 µg/mL | <10 µg/mL |  |  | 
COc1ccc2[se]n(Cc3cccc(Cn4[se]c5ccc(OCCCN(C)C)cc5c4=O)c3)c(=O)c2c1 [CPD33] | >1000 µg/mL | <10 µg/mL |  |  | 
COc1ccc2[se]n(Cc3cccc(Cn4[se]c5ccc(OCCCn6nnnc6C)cc5c4=O)c3)c(=O)c2c1 [CPD34] | >1000 µg/mL | <10 µg/mL |  |  | 
O=C(CCCCCn1[se]c2ccccc2c1=O)Oc1ccccc1 [CPD36] | >1000 µg/mL | <10 µg/mL |  |  | 
O=C(CCCCCn1[se]c2ccccc2c1=O)Nc1ccccc1 [CPD37] | >1000 µg/mL | <10 µg/mL |  |  | 
O=C(NCCCCCn1[se]c2ccccc2c1=O)c1ccccc1 [CPD38] | >1000 µg/mL | <10 µg/mL |  |  | 
O=c1c2ccccc2[se]n1CCn1[se]c2ccccc2c1=O [Ethaselen, ethaselen] |  |  | 1.87 | 22000 µg/mL (≈ 52100 µM) | 2 to 3 µg/mL (≈ 4.74 to 7.11 µM)
